Data reported in patent US8242084B2, “Dimerized peptide” (Chugai Seiyaku Kabushiki Kaisha, priority 2003, dated 2012).
Bridge positions count the residues as written; N and C are the ends. I, II: the chains in the order shown.

Tested on: EL4-A2402/K^b cells
Assay: Induction of CTLs with peptide dimer: HLA-A24 transgenic mice immunised, splenocytes tested by 51Cr release assay
Format: in vivo, HLA-A24 transgenic mouse
Settings: for CTL-inducing activity (induction of peptide-specific CTLs): HLA-A24 transgenic mouse, s.c. injection in the base of the tail, FIG. 1
Procedure: The CTL-inducing activity of the peptide dimer prepared in Example 1 was evaluated using HLA-A24 transgenic mice (Int. J. Cancer: 100, 565, 2002). The peptide dimer was dissolved in dimethyl sulfoxide (DMSO) to obtain a 40 mg/ml peptide solution. The peptide solution (35 μl) was then added to 10 mM phosphate buffer (pH 7.5) (581 μl) to obtain a peptide suspension. The resultant peptide suspension (550 μl) and Montanide ISA51 (Seppic) (700 μl) were mixed using a connected glass syringe to prepare an emulsion as an administration solution.
The administration solution (200 μl) was injected into an HLA-A24 transgenic mouse subcutaneously in the base of the tail. Three mice were used. Seven days after the injection, the spleen was removed and splenocytes were prepared. A portion of the splenocytes was pulsed with the peptide dimer (100 μg/ml) for 1 hour. Splenocytes not pulsed with the peptide were seeded into a 24-well plate at 7×10^6 cells/well and thereto were added the above-mentioned splenocytes pulsed with the peptide (1×10^6 cells/well), and the plate was incubated. The incubation was conducted in RPMI1640 medium supplemented with 10% FCS, 10 mM HEPES, 20 mM L-glutamine, 1 mM sodium pyruvate, 1 mM MEM nonessential amino acids, 1% MEM vitamin and 55 μM 2-mercaptoethanol for 5 days.
The cultured splenocytes were examined for the cytotoxic activity specific for the peptide used in the administration by ^51Cr release assay (J. Immunol.: 159, 4753, 1997). EL4-A2402/K^b cells obtained by transforming EL-4 cells (ATCC No. TIB-39) in such a manner that a chimera MHC class I molecule of HLA-A24 and H2K^b (Int. J. Cancer: 100, 565, […]) are expressed stably were used as the target cells. The target cells were labeled with ^51Cr (3.7 MBq/10^6 cells) and pulsed with the peptide at 100 μg/ml for an hour. For control, target cells not pulsed with the peptide were labeled with ^51Cr for 2 hours. Those labeled target cells and the previously prepared splenocytes were mixed at a ratio of 1:120, cultured for 4 hours and the CTL activity was evaluated on the basis of the percent of damaged target cells.

For “Example 1: Dimer of two H-Cys-Tyr-Thr-Trp-Asn-Gln-Met-Asn-Leu-OH (SEQ ID NO:44) monomers, made by air oxidation, bound through a disulfide bond (chain 1 H-CYTWNQMNL-OH; chain 2 H-CYTWNQMNL-OH; disulfide I:1-II:1; SMILES CSCC[C@H](NC(=O)[C@H](CCC(N)=O)NC(=O)[C@H](CC(N)=O)NC(=O)[C@H](Cc1c[nH]c2ccccc12)NC(=O)[C@@H](NC(=O)[C@H](Cc1ccc(O)cc1)NC(=O)[C@@H](N)CSSC[C@H](N)C(=O)N[C@@H](Cc1ccc(O)cc1)C(=O)N[C@H](C(=O)N[C@@H](Cc1c[nH]c2ccccc12)C(=O)N[C@@H](CC(N)=O)C(=O)N[C@@H](CCC(N)=O)C(=O)N[C@@H](CCSC)C(=O)N[C@@H](CC(N)=O)C(=O)N[C@@H](CC(C)C)C(=O)O)[C@@H](C)O)[C@@H](C)O)C(=O)N[C@@H](CC(N)=O)C(=O)N[C@@H](CC(C)C)C(=O)O)”, which “CTL-inducing activity (induction of peptide-specific CTLs)” value is on record?
Its value is “CTLs specific for the peptide were induced”.

And the “CTL-inducing activity (induction of peptide-specific CTLs)” value (listed as peptide dimer (SEQ ID NO: 44))?
The value was “induces CTLs”.

And the “cytotoxic activity of splenocytes on target cells not pulsed with the peptide (control)” value (same splenocytes, target cells not pulsed with the peptide, ratio 1:120, 4 hours)?
The value was “only weak cytotoxicity”.

What about the “cytotoxic activity of splenocytes on target cells pulsed with the peptide (percent of damaged target cells)” value (splenocytes from mice injected s.c. with emulsion (Montanide ISA51), 7 days, target cells pulsed with peptide 100 μg/ml, target:splenocyte ratio 1:120, 4 hours) of the same substance?
The value was “injured strongly”.
